Among the data in ChEMBL document CHEMBL1201862, “PubChem BioAssay data set” (2004) are EC50, IC50 and AC50 values, retold here.

The source made the active and inactive calls. For most assays here, no stated cut-off is given here; in the data, actives have a measured EC50 and inactives only a lower limit. A value given as a limit tells only on which side of the number the result lay.

Assay [1] in a line: NIH-3T3 fibroblast cytotoxicity, dose response, cytotoxicity control, cell-based, fluorescence, Alamar Blue, secondary assay (AID 2327).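 Further: NIH-3T3 mouse fibroblasts cultured with fluconazole at 8 µg/mL.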 In kind it is functional. In general terms: Resazurin is reduced to fluorescent resorufin, in cell work by metabolically active cells.
The target in another assay is T1, Cysteine protease ATG4B (Homo sapiens, UniProt Q9Y4P1).
T1 sequence (Q9Y4P1 whole entry): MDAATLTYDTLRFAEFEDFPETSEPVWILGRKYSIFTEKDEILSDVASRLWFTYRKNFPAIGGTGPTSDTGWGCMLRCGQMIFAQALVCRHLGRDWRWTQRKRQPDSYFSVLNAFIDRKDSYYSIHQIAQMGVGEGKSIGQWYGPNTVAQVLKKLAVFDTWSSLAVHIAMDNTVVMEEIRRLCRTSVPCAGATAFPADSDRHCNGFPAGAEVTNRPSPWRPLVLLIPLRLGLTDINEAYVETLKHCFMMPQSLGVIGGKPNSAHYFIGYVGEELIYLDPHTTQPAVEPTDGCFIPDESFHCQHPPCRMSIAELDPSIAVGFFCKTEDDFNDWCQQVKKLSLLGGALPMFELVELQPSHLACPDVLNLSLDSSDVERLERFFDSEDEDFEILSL
Description: autophagin-1 cysteine protease inhibition – biochemical, fluorescence, set 2, dose response (AID 588584). In kind it is functional.

Another assay has as its system Streptococcus. Description: GAS UMAA2166 growth inhibition – luminescence, BacTiterGlo, counter-screen for streptokinase expression inhibitor project, dose response (AID 1915).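 Further: potency for reduction of bacterial viability or growth.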 In kind it is functional, organism-based. For orientation: Counterscreens check selectivity or assay interference.
Assay [2] in a line: fluconazole-exposed Candida albicans growth modulators – fluorescence, retest, confirmation (AID 2467). In kind it is functional, cell-based.
The target of assay [3] is T2, Serine/threonine-protein phosphatase (Candida dubliniensis (strain CD36 / CBS 7987 / NCPF 3949 / NRRLY-17841) (Yeast), UniProt B9W6M3).
T2 sequence (B9W6M3 whole entry): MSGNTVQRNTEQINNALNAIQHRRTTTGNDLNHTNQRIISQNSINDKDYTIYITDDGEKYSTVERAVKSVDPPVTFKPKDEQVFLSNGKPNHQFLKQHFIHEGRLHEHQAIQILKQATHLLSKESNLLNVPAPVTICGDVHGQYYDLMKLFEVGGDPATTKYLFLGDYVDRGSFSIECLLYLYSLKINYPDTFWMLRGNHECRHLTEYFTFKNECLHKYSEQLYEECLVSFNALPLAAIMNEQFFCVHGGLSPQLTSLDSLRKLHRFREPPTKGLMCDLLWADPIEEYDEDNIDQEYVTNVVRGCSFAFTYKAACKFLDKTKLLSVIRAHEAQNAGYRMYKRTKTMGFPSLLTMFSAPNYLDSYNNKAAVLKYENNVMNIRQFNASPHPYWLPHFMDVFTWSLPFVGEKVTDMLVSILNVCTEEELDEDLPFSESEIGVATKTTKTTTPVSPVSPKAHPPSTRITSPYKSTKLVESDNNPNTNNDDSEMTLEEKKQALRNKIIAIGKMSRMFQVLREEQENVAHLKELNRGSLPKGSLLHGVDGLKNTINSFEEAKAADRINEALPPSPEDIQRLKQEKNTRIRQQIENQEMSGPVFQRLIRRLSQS
In words: blockers of CaCl2-induced CDRE-lacZ signaling – S. cerevisiae, luminescence, secondary, dose response (AID 2388).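 Further: yeast reporter cells carrying a calcineurin-responsive lacZ construct stimulated with calcium chloride; luminescent beta-galactosidase reporter signal in whole cells rather than isolated phosphatase activity; potency for inhibition where a drop in reporter signal means calcineurin blockade.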 In kind it is functional, cell-based.

In another assay the target is Phospholipase A2 (Homo sapiens, UniProt P04054). Description: phospholipase A2 activity inhibition – biochemical, set 2, counter-screen for ATG4B inhibitor project, dose response (AID 588586). Type of assay: functional.
Phospholipase A2, sequence (P04054 whole entry): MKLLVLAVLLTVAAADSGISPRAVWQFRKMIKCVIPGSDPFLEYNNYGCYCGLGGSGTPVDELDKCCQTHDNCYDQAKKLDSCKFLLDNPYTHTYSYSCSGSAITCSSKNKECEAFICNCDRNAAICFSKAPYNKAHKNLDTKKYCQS
For assay [4], the target named is ATP-dependent molecular chaperone HSP82 (Candida albicans (strain WO-1) (Yeast), UniProt C4YTQ8). Description: steroid-induced GRE reporter decrease in yeast – S. cerevisiae, luminescence, Hsp90 inhibitor project, dose response (AID 2400).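 Further: beta-galactosidase luminescence from glucocorticoid response element reporter as proxy for Hsp90 function; inhibitor potency where signal loss means Hsp90 inhibition.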 In kind it is functional, cell-based.
ATP-dependent molecular chaperone HSP82, sequence (C4YTQ8 whole entry): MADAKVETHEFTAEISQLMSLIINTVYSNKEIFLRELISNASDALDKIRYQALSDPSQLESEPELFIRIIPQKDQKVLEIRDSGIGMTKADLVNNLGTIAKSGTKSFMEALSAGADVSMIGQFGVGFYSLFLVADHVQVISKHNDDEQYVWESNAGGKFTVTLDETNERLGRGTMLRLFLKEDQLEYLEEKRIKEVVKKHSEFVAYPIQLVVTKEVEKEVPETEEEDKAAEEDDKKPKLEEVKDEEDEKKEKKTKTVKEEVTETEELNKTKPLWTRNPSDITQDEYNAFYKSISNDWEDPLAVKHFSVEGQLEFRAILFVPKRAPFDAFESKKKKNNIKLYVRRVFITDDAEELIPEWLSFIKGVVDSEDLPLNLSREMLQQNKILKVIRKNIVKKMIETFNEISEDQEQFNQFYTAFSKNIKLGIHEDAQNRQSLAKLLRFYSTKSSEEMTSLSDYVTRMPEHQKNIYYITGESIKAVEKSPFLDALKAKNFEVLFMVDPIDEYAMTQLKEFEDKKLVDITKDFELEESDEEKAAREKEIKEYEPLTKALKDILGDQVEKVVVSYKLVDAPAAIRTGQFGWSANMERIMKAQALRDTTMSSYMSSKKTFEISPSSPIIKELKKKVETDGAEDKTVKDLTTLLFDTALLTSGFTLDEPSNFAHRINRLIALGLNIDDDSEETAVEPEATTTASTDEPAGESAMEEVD
Assay [5] deals with Streptococcus sp. 'group A'. Description: Streptococcus pyogenes SK(-)GAS viability under kanamycin – luminescence, BacTiterGlo, confirmation, counter-screen for streptokinase expression inhibitor project, dose response (AID 1900). In kind it is functional, organism-based.
Another assay deals with Cytochrome P450 2D6 (Homo sapiens, UniProt P10635).
Cytochrome P450 2D6, sequence (P10635 whole entry): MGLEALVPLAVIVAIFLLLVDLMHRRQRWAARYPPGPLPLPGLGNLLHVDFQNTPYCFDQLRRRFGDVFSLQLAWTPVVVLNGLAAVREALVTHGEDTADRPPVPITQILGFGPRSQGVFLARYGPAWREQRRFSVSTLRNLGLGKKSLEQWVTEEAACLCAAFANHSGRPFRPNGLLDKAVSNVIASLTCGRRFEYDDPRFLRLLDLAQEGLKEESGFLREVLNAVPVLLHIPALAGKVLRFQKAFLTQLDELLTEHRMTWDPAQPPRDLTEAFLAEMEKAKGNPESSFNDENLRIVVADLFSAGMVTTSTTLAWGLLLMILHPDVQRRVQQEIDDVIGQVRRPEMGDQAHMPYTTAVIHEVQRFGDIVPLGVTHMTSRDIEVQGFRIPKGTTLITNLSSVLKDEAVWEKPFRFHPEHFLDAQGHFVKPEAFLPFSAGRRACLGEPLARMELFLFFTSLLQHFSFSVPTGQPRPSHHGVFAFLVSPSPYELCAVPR
Assay [6] in a line: cells. Type of assay: functional, cell-based.
A short description of assay [7]: Luminescence Cell-Based Dose Retest to Confirm Inhibitors of Cancer Stem Cells. [Related pubchem assays (depositor defined):AID2717, AID2721]. As to conditions: Homo sapiens. In kind it is functional.
The target of assay [8] is T3, Microphthalmia-associated transcription factor (Homo sapiens, UniProt O75030).
T3 sequence (O75030 whole entry): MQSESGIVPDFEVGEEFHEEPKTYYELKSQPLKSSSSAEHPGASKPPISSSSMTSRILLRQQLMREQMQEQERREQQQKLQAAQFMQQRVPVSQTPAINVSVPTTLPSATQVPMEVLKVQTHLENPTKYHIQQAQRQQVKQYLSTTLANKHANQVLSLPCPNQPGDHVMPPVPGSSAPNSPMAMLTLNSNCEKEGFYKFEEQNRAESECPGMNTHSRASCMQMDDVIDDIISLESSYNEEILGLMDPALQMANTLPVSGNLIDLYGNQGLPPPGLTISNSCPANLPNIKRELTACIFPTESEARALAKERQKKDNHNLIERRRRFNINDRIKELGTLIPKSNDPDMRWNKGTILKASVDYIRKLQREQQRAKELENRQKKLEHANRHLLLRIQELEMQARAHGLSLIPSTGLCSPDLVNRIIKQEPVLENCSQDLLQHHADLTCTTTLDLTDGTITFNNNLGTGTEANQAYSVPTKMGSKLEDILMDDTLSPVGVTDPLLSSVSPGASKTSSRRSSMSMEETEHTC
In words: reducers of TRPM1 reporter luminescence, concentration series – cell-based, SK-MEL-5, cherry-picked, set 3, MITF inhibitor project, dose response (AID 493073).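 Further: SK-MEL-5 melanoma cells with luciferase driven by the MITF target TRPM1 promoter.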 In kind it is functional.

Assay [9] in a line: cells. Type of assay: functional, cell-based. The source holds these as a separate data set.
Another assay deals with INS1. Description: INS-1E survival protection against cytokine death – cell-based, luminescence, retest, dose response (AID 449756).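 Further: cell death triggered by IL-1 beta plus TNF-alpha plus IFN-gamma mixture; protective hits raise ATP signal compared with cytokine alone wells.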 The settings on record: Rattus norvegicus. In kind it is functional.

`Cc1c(Cl)c([N+](=O)[O-])nn1Cc1ccc(C(=O)N/N=C\c2cc(Cl)ccc2O)o1`: the EC50 is > 160 µM (inactive) in [1]; 2.38 µM (active) in the assay with Streptococcus; 754 nM (active) in assay [2]; > 180 µM (inactive) in [3]; 29.5 µM (active) in [4]; 2.03 µM (active) in [5]. Moreover, the EC50 was 9.68 µM (active) in “cells [6]” and 89 µM (active) in the assay “cells [9]”. The IC50 on Cysteine protease ATG4B is 21 µM (inactive); at Phospholipase A2 it was 5.5 µM (active). The AC50 was 11.2 µM (inconclusive) on Cytochrome P450 2D6, 3.28 µM (active) in assay [7], 3.47 µM (active) in assay [8] and 1.67 µM (active) in the assay on INS1.

As usually defined, the EC50 is the concentration that produces a half-maximal response. Broadly, the IC50 is the midpoint of a concentration-inhibition curve. Usually AC50 stands for the midpoint of the concentration-response curve, whichever way the signal moves.
